Laboratory results taken from US20220071971A1, “MACROCYCLIC COMPOUNDS AND THEIR USE IN THE TREATMENT OF DISEASE” (NOVARTIS AG, priority 2018, published 2022).

Target: T1, delF508-CFTR (Homo sapiens, UniProt P13569, DEL508-508)
T1 construct: expressed in transfected cells
Assay: Measurement of delF508-CFTR-HRP surface expression in CFBE41o- cells
Format: cell-based
Conditions: for EC50: HRP-tagged delF508-CFTR surface expression, CFBE41o- cells, 24 h with compound, 10-point curve, highest concentration 10 μM; for Emax: CFBE41o-, read-out: DelF508-CFTR-HRP Amax %
Procedure, shortened: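 CFBE41o- cells stably expressing delF508-CFTR with HRP in the fourth extracellular loop, induced 48 h with 500 ng/mL doxycycline, then exposed to compound (10-point, 3-fold, top 10 μM, ≤0.5% DMSO) for 24 h at 37° C. Surface HRP read by luminescence with cell-impermeant substrate; EC50 by logistic fit, triplicates, efficacy relative to reference corrector.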

[1] = efficacy relative to reference compound 3-(6-(1-(2,2-difluorobenzo[d][1,3]dioxol-5-yl)cyclopropane-1-carboxamido)-3-methylpyridin-2-yl)benzoic acid

T1 sequence (P13569 with tags, fused parts or gaps DEL508-508): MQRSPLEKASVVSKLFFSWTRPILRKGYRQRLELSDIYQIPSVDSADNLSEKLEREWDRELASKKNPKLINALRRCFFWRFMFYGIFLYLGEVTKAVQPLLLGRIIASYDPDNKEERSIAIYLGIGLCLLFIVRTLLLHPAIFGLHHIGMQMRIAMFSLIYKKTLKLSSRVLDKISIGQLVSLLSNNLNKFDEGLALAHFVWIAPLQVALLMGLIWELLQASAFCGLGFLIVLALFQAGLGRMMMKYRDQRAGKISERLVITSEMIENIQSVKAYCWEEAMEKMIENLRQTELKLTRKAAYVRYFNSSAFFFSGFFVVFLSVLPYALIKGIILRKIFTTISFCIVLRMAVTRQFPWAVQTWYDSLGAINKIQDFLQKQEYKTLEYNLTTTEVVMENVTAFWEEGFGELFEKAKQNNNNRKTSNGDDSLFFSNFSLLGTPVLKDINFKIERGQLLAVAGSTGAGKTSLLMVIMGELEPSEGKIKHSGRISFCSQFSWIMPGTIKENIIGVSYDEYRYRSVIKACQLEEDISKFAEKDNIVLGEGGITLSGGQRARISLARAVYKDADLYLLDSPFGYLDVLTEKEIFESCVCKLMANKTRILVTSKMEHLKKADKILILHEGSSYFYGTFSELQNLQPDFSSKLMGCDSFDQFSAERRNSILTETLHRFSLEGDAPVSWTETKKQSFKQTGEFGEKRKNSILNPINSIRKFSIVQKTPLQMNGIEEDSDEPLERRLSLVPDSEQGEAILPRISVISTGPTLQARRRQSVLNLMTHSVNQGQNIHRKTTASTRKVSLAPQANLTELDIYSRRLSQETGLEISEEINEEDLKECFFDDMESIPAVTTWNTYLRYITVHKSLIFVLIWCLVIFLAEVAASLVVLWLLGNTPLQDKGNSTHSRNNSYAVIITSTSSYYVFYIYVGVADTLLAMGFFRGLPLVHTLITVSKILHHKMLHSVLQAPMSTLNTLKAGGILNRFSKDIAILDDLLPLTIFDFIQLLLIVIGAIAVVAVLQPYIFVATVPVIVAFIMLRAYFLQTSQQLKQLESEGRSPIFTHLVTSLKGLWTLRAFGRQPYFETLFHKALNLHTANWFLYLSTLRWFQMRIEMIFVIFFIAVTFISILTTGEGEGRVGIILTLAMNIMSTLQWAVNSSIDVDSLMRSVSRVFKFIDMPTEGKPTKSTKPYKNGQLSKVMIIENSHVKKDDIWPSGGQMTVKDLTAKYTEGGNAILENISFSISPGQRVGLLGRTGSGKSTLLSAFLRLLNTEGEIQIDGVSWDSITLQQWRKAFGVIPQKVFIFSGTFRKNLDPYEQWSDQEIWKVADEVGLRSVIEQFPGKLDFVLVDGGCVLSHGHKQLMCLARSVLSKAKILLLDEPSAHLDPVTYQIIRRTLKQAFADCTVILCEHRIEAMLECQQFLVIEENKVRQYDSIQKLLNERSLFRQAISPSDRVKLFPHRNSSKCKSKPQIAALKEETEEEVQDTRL

EC50 [µM]	Emax [1] [%]	DelF508-CFTR-HRP Amax % [1] [%]	Structure (SMILES)
0.224			O=C(O)CCCN1CCCCCCCCCc2ccccc2-c2nc(ccc2C(F)(F)F)NS(=O)(=O)c2cccc1n2 [Compound 66, 4-(4,4-dioxido-2^3-(trifluoromethyl)-4-thia-3,6-diaza-2,5(2,6)-dipyridina-1(1,2)-benzenacyclopentadecaphane-6-yl)butanoic acid]
1.42	306		O=C(O)CCN1CCCCc2ccccc2-c2nc(ccc2C(F)(F)F)NS(=O)(=O)c2cccc1n2 [Compound 87, 3-(4,4-dioxido-2^3-(trifluoromethyl)-4-thia-3,6-diaza-2,5(2,6)-dipyridina-1(1,2)-benzenacyclodecaphane-6-yl)propanoic acid]
2.34	347		COc1ccc2nc1-c1ccccc1CCCCCN(CCCCO)c1cccc(n1)S(=O)(=O)N2 [Compound 17, 6-(4-hydroxybutyl)-2^3-methoxy-4-thia-3,6-diaza-2,5(2,6)-dipyridina-1(1,2)-benzenacycloundecaphane 4,4-dioxide]
2.43		163.8	COc1ccc2nc1-c1ccccc1CCCCCN(CCCC(=O)O)c1cccc(n1)S(=O)(=O)N2 [Compound 83, 4-(2^3-methoxy-4,4-dioxido-4-thia-3,6-diaza-2,5(2,6)-dipyridina-1(1,2)-benzenacycloundecaphane-6-yl)butanoic acid]
0.831	488		COC(=O)CNCCN1CCCCCc2ccccc2-c2nc(ccc2C(F)(F)F)NS(=O)(=O)c2cccc1n2 [Compound 126, methyl (2-(4,4-dioxido-2^3-(trifluoromethyl)-4-thia-3,6-diaza-2,5(2,6)-dipyridina-1(1,2)-benzenacycloundecaphane-6-yl)ethyl)glycinate]
2.65	179		O=C(O)CCN1CCCCCc2ccccc2-c2cccc(n2)NS(=O)(=O)c2cccc1n2 [Compound 93, 3-(4,4-dioxido-4-thia-3,6-diaza-2,5(2,6)-dipyridina-1(1,2)-benzenacycloundecaphane-6-yl)propanoic acid]

Second part, the molecule before the results:

Structure (SMILES)	EC50 [µM]	Emax [1] [%]	DelF508-CFTR-HRP Amax % [1] [%]
O=S1(=O)Nc2ccc(C(F)(F)F)c(n2)-c2ccccc2CCCCCN(CCN2CCNCC2)c2cccc1n2 [Compound 121, 6-(2-(piperazin-1-yl)ethyl)-2^3-(trifluoromethyl)-4-thia-3,6-diaza-2,5(2,6)-dipyridina-1(1,2)-benzenacycloundecaphane 4,4-dioxide]	0.495	348	
O=C(O)C1(CN2CCOCCCc3ccccc3-c3nc(ccc3C(F)(F)F)NS(=O)(=O)c3cccc2n3)CC1 [Compound 95, 1-((4,4-dioxido-2^3-(trifluoromethyl)-9-oxa-4-thia-3,6-diaza-2,5(2,6)-dipyridina-1(1,2)-benzenacyclododecaphane-6-yl)methyl)cyclopropane-1-carboxylic acid]	1.32		
O=C(O)CCCN1CCCCOc2ccc(F)cc2-c2nc(ccc2C(F)(F)F)NS(=O)(=O)c2cccc1n2 [Compound 63, 4-(1^5-fluoro-4,4-dioxido-2^3-(trifluoromethyl)-11-oxa-4-thia-3,6-diaza-2,5(2,6)-dipyridina-1(1,2)-benzenacycloundecaphane-6-yl)butanoic acid]	1.8		
CC1(C)O[C@@H](CO)[C@H](CN2CCCCCc3ccccc3-c3nc(ccc3C(F)(F)F)NS(=O)(=O)c3cccc2n3)O1 [Compound 34, 6-(((4S,5S)-5-(hydroxymethyl)-2,2-dimethyl-1,3-dioxolan-4-yl)methyl)-2^3-(trifluoromethyl)-4-thia-3,6-diaza-2,5(2,6)-dipyridina-1(1,2)-benzenacycloundecaphane 4,4-dioxide]	0.281	448	
O=S1(=O)Nc2ccc(C(F)(F)F)c(n2)-c2ccccc2CCCCCCCCN(CCCO)c2cccc1n2 [Compound 43, 6-(3-hydroxypropyl)-2^3-(trifluoromethyl)-4-thia-3,6-diaza-2,5(2,6)-dipyridina-1(1,2)-benzenacyclotetradecaphane 4,4-dioxide]	0.255		
O=S1(=O)Nc2ccc(C(F)(F)F)c(n2)-c2cccnc2NCCCCNc2cccc1n2 [Compound 5, 2^3-(trifluoromethyl)-4-thia-3,6,11-triaza-1(3,2),2,5(2,6)-tripyridinacycloundecaphane 4,4-dioxide]	1.62	159	
O=C(O)CCCN1CCCCCc2ccc(F)cc2-c2nc(ccc2C(F)(F)F)NS(=O)(=O)c2cccc1n2 [Compound 86, 4-(1^5-fluoro-4,4-dioxido-2^3-(trifluoromethyl)-4-thia-3,6-diaza-2,5(2,6)-dipyridina-1(1,2)-benzenacycloundecaphane-6-yl)butanoic acid]	0.293		
O=C(O)CC[C@H]1CCCCc2ccccc2-c2nc(ccc2C(F)(F)F)NS(=O)(=O)c2cccc(n2)N1 [Compound 135, (R)-3-(4,4-dioxido-2^3-(trifluoromethyl)-4-thia-3,6-diaza-2,5(2,6)-dipyridina-1(1,2)-benzenacycloundecaphane-7-yl)propanoic acid]	0.154	651	
